Source: US20140079836A1, “METHODS AND COMPOSITIONS FOR ALTERING HEALTH, WELLBEING, AND LIFESPAN” (LifeSpan Extension, LLC, priority 2008, published 2014)

Columns and labels:
[1] = system: genes involved in longevity (Array 1); test: Custom RT-PCR microarray (Array 1) gene expression in skin fibroblasts, UVB/UVA1; type: cell-based, human; details: donor three IDE + UVB vs. Green tea + UVB Continuous Incubation; for PPC gene expression fold change / RTC gene expression fold change: control well
Method: Seeding of cells: On Day 1, each cell culture was seeded into 6 well cluster dishes at ˜1.5×10^5 cells in 4 mls medium per well. Three wells were seeded per test condition or control.
Experimental phase: On Day 3, wells were washed 1× with 2 mls medium, fed back 2 mls medium without fetal bovine serum and preincubated for 30-60 minutes before challenge with test or control conditions. After the preincubation, medium was aspirated from the wells and 2.5 mls of test or control condition in medium with 1% fetal bovine serum was pipetted into the appropriate wells.
(3) UVA1, UVB exposed and unexposed cells without test condition were used as controls. The experimental phase ended at 24 hours post UV exposure. Cells from each test and control parameter were then prepped for RNA isolation as described below.
UVB/UVA1 exposure: Cells exposed to UV received 200 mJ/cm^2 UVB/1 MED UVA1 using Thermo Oriel solar simulator model SP66923-3056. Cells were exposed from the bottom of the culture dish. The UV dose delivered to the cells was adjusted for interference from the plastic in the culture dish.
Preparation of RNA: The RNA was isolated using the Qiagen RNEasy Plus Mini Kit according to the manufacturer's protocol which can be found on the World Wilde Web at qiagen.com/literature/Defaultaspx?Term=&Language=EN&LiteratureType=4& ProductCategory=10162. The RNA was quantified and examined for purity using the 260/280 nm read method in a μ Quant spectrophotometer before use in the array.
Creation and Performance of a Custom Microarray (“Array 1”): Through the Custom Array design service of Superarray Bioscience Corporation, a 96 well RT-PCR microarray (“Array 1”) was developed to illustrate genetic responses in cells treated as above for specific genes involved in longevity as well as the relevant quality controls. The array was performed in compliance with manufacturer's guidelines and by recommended manufacturer's protocol as can be found on the World Wilde Web at superarray.com/Manual/perarrayplate.pdf
Custom Microarray Results: The results from the microarrays were determined using the delta CT method which uses comparisons of control genes and threshold cycles of genes of interest to generate relative expression values. The full set of experimental conditions was cross referenced and the data is provided herewith in DATA TABLE 3.
Preparation of RNA: The RNA was isolated using the Qiagen RNEasy Plus Mini Kit according to the manufacturer's protocol which can be found on the World Wide Web at qiagen.com/literature/Default. aspx?Term=&Language=EN&LiteratureType=4&ProductCategory=10162.
The RNA was quantified and examined for purity using the 260/280 nm read method in a μ Quant spectrophotometer before use in the array.
Creation and Performance of the Custom Microarray: Through the Custom Array design service of Superarray Bioscience Corporation, a 96 well RT-PCR Microarray was developed to illustrate genetic responses in cells treated as above for specific genes involved in longevity as well as the relevant quality controls. The array was performed in compliance with manufacturer's guidelines and by recommended manufacturer's protocol as can be found on the World Wide Web at superarray.com/Manual/perarrayplate.pdf.
Custom Microarray Results: The results from the microarrays were determined using the delta CT method which uses comparisons of control genes and threshold cycles of genes of interest to generate relative expression values. The full set of experimental conditions was cross referenced and the data is provided herewith in DATA TABLE 4.
Custom Microarray Results: The results from the microarrays were determined using the delta CT method which uses comparisons of control genes and threshold cycles of genes of interest to generate relative expression values. The full set of experimental conditions was cross referenced and the data is provided herewith in DATA TABLE 5. […]

custom array genes = test: Chlorogenic acid challenge, custom RT-PCR microarray, dermal fibroblasts ag07999; type: cell-based, human; details: 24 hours
Method: Human dermal fibroblasts (ag07999) were seeded at near confluency in 6-well dishes in 4 ml MEM, 10% FBS/well. 24 hours after seeding, wells were aspirated and 3 ml chlorogenic acid dilution in MEM, 1% FBS added, or MEM, 1% FBS only for control wells. Chlorogenic acid (Acros Organics, Geel, Belgium) dilutions used were: 0.005%, 0.0005%, 0.00005%, 0.000005% and 0.0000005%. 24 hours after chlorogenic acid challenge, wells were aspirated, 1 ml trypsin-EDTA added to each well, swirled and aspirated. Trypsin-EDTA was again added to each well and cells retrieved with MEM 10% FBS when released from the substratum and centrifuged to a pellet.
RNA was collected from the harvested cells according to protocol using RT2 qPCR-Grade RNA Isolation Kit from SABiosciences Co. The RNA was then used to create cDNA (using a First Strand Synthesis Kit, SABiosciences, and following the manufacturer's instructions) and run on the BioRad iCycler RT-PCR machine using Custom RT-PCR Microarray (CAPH09464A, SABiosciences) (Array 1) and SYBR Green Reaction Mix (SABiosciences). Data from Example 16 are shown in FIG. 19; additional results are described and analyzed below.

COC1=C(OC)C(=O)C(CCCCCCCCCCO)=C(C)C1=O [IDE]
ACE gene expression fold change [1]: −1.13
ACTB gene expression fold change [1]: −2.17
APOE gene expression fold change [1]: 2.43
BAX gene expression fold change [1]: −1.01
BCL2 gene expression fold change [1]: 2.04
CASP2 gene expression fold change [1]: −1.96
CASP9 gene expression fold change [1]: 2.11
CCL4L1 gene expression fold change [1]: 16.91
CLK1 gene expression fold change [1]: 1.02
COX1 gene expression fold change [1]: 1.17
CREBBP gene expression fold change [1]: 1.49
CYP19A1 gene expression fold change [1]: 24.76
DDC gene expression fold change [1]: 58.89
GAPDH gene expression fold change [1]: −2.10
GH1 gene expression fold change [1]: 17.51
HIGX1A gene expression fold change [1]: 40.22
HLA-DRA gene expression fold change [1]: 65.34
HPRT1 gene expression fold change [1]: 1.30
HSPA1A gene expression fold change [1]: −1.54
HSPA1B gene expression fold change [1]: −2.03
HSPA1L gene expression fold change [1]: −1.39
IFI44 gene expression fold change [1]: 1.09
IGF1 gene expression fold change [1]: 4.23
IGF2 gene expression fold change [1]: −1.16
IL1A gene expression fold change [1]: 10.41
IL6 gene expression fold change [1]: −1.25
IL10 gene expression fold change [1]: 3.20
KRAS gene expression fold change [1]: 1.21
MAPK14 gene expression fold change [1]: −1.39
NADSYN1 gene expression fold change [1]: −2.33
NFKB1 gene expression fold change [1]: −1.13
NOS2A gene expression fold change [1]: 40.22
PARP1 gene expression fold change [1]: −2.68
PARP2 gene expression fold change [1]: 22.32
PPARG gene expression fold change [1]: 5.39
PTGS2 gene expression fold change [1]: 3.68
SHC1 gene expression fold change [1]: −1.54
SIRT1 gene expression fold change [1]: 1.39
SOD1 gene expression fold change [1]: −2.03
SOD2 gene expression fold change [1]: −1.13
TEP1 gene expression fold change [1]: 1.06
TERT gene expression fold change [1]: 3.56
TNF gene expression fold change [1]: 16.91
TP53 gene expression fold change [1]: 1.39
PPC gene expression fold change ([1]; entry r305): −1.48
RTC gene expression fold change ([1]; entry r306): 1.09
PPC gene expression fold change ([1]; entry r311): −1.77
RTC gene expression fold change ([1]; entry r312): −3.29

O=C(/C=C/c1ccc(O)c(O)c1)O[C@@H]1C[C@](O)(C(=O)O)C[C@@H](O)[C@H]1O [chlorogenic acid, -[[3-(3,4-Dihydroxyphenyl)-1-oxo-2-propenyl]oxy]-1,4,5-trihydroxycyclohexanecarboxylic acid]
IFI44 relative expression (custom array genes; FIG. 17): may significantly decrease expression
expression of genes in the mitochondrial function/biogenesis pathway (custom array genes; FIG. 21a): primarily decreases gene expression
PTGS2 relative expression (custom array genes; at higher concentrations, FIG. 16): significant decrease in PTGS2 gene expression
NOS2A relative expression (custom array genes; increasing concentrations, FIG. 13): biphasic response
SIRT1 relative expression (custom array genes; increasing concentrations, FIG. 14): entirely decreasing expression
CCL4L1 relative expression (custom array genes; middle dosage (0.00005%), FIG. 11): marked repression
